Experiments:
NF-κB [1] = test: EMSA of NF-κB DNA binding in C2C12 cells; type: cell-based, mouse; details: 200 μM
Protocol: (§1) To confirm that the NBD mimetics reduce IKK activity, the extent of phosphorylation of the IKK target, IκBα, in response to 10 ng/ml of TNF-α was determined by Western blot at 0, 5 and 10 min after TNF-α stimulation. […] To determine if the mimetics also reduce NF-κB DNA binding activity, electrophoretic mobility shift assay (EMSA) was conducted both in vivo and in vitro.
(§2) Cytoplasmic and nuclear fractions were extracted using the NE-PER nuclear and cytoplasmic extraction reagents (ThermoFisher) according to the manufacturer's instructions. The gel shift assay was performed by following the previously described method (41). In brief, 5 μg of nuclear extract was incubated with gel shift binding buffer and an α-^32P-deoxycytodine triphosphate-radiolabeled NF-κB probe for 20 min at room temperature (MP Biomedicals). The oligonucleotide sequences are as follows: NF-κB template, 5′-[…]-3′; NF-κB annealing, 5′-[…]-3′. The reaction product was separated on a 6% non-denaturing polyacrylamide gel.

p-IκBα = test: Western blot of IκBα phosphorylation after TNF-α; type: cell-based; details: 10 ng/ml TNF-α, 0, 5 and 10 min; 100 μM compound
Protocol: as §1
HEK293 cells grown in a 6-well plate at 1×10^6 cells/well were left untreated or treated with 100 μM of ZINC12909780 or ZINC3369392 for 30 min, followed by 10 ng/ml of TNFα for 0, 5 and 10 min. Cells were then harvested for western blot. Cell lysate was prepared in RIPA buffer (20 mM Tris-HCl (pH 7.5), 150 mM NaCl, 1 mM Na^2EDTA, 1 mM EGTA, 1% NP-40, 1% sodium deoxycholate, 2.5 mM sodium pyrophosphate, 1 mM beta-glycerophosphate, 1 mM Na3VO4, 1 μg/ml leupeptin, 1× protease inhibitor cocktails (sigma) and 1× Halt phosphatase inhibitor cocktail (Thermo)). 30 ug of protein was resolved by MINI-PROTEAN TGX 4-15% SDS-PAGE. Blots were blocked in 5% non-fat milk. Primary antibodies were incubated at 4° C. overnight and secondary antibodies were incubated at room temperature for 1 hour. Anti-p-IκBα (1:1000 CST) and anti-IκBα (1:2000 CST) were used to assess NF-κB activation. Anti-GAPDH (1:5000 CST) was used as a loading control.

[2] = Degradation in the presence of serum; type: in vitro ADME; details: data not shown
[3] = biological target: T1, IKK complex (IKKß, IKKα and NEMO) (Homo sapiens, UniProt Q9Y6K9); test: Co-immunoprecipitation of NEMO with IKKß in 293 cells; type: cell-based; details: Zinc-5 at 4 hours, Zinc-13 at 1 hour, NBD peptide at 4 hours
T1 construct: analyzed by Western blot for the level of co-precipitated NEMO; endogenous in cells; host or cells: 293 (HEK293) cells
Text: FIG. 8 is a bar graph showing the inhibition of TNFα by NBDA-1 (Zinc-13). […] In addition, we have examined the ability of the compounds to disrupt the IKK complex, comprised of IKKß, IKKα and NEMO.
A non-functional, related compound Zinc-7 had no effect.

mdx mice = test: Chronic treatment of mdx mice (Duchenne muscular dystrophy model); type: in vivo, mouse; details: chronic treatment with the ZINC compounds
Text: Mdx mice develop normally at birth, and then undergo a massive myonecrosis starting at three weeks. Treatment of mdx mice with IKK/NF-kB inhibitors effectively reduces inflammation, block necrosis and increase muscle regeneration. Mdx mice were chronically treated with vehicle, SR12343, SR12460 or 8K-NBD starting from day 21, 3 times/week for 4 weeks. […] To determine if SR12343 and SR12460 improve muscle pathology, tibialis anterior (TA) muscle was stained with hematoxylin and eosin (H&E) to assess inflammatory infiltration, necrosis, central nucleation and fibrosis. […] Fiber size in centrally nucleated and non-centrally nucleated myofibers was also smaller in mice treated with SR12343 and 8K-NBD, indicating active reconstruction of myofiber during the regenerative phase.
To determine muscle strength post-treatment, grip strength test on forelimbs was performed 2 weeks and 4 weeks post-treatment.
HEK293 cells were grown in Dulbecco's Modification of Eagles Medium (with 4.5 g/L glucose and L-glutamine), supplemented with 10% fetal bovine serum, penicillin and streptomycin. Raw264.7 cells were cultured in RPMI-1640 media containing 10% heat-inactivated fetal bovine serum, penicillin and streptomycin. C57BL/10ScSn-Dmd^mdx/J and female C57BL/6 mice were purchased from the Jackson Laboratory. Mice were housed in the animal facilities of Scripps Fla. under constant temperature and humidity. Animal protocols used in this study were approved by Scripps Fla. Institutional Animal Care and Use Committees. Three week-old sex-matched mdx mice were dosed with SR12343 (30 mg/kg), […] (30 mg/kg), 8K-NBD peptide (10 mg/kg) or vehicle by intraperitoneal (i.p.) injection 3 times per week for 4 weeks. Mice were sacrificed at 7 weeks of age by carbon dioxide inhalation and tibialis anterior was collected for histological analysis.
Seven week-old treated or untreated mdx mice were measured for forelimb grip strength using a digital grip strength meter paired with a metal grid (Bioseb). Mice were allowed to grip the metal grid tightly and readings were obtained by gently pulling the tail backward until release. Five sequential measurements were performed and the average force was calculated.
Tissues fixed in 10% neutral buffered formalin (NBF) overnight were imbedded in paraffin. Tissue was sectioned at […] using a microtome. H&E staining was conducted following a standard protocol (REF).

NF-κB [4] = test: Firefly luciferase NF-κB reporter assay in TNF-α-stimulated HEK293 cells; type: cell-based; details: for inhibition of TNF-α-induced NF-κB activation (luciferase reporter), in words: 293 NF-κB luciferase reporter cells, 10 ng/ml TNF-α, compound 12909780 at 100 μM
Protocol: This model was used to screen a subset of the drug-like ZINC 8.0 database set (˜900,000 compounds) (Irwin et al., 2005). We were able to identify 161 hits that matched at least 6 features out of eight of the pharmacophore model. […] Two compounds termed NBDA-1 (Zinc-13) and NBDA-2 (Zinc-5), successfully passed these filters (See FIG. 4) and were purchased for biological testing. The compounds were then tested for ability to inhibit TNF-alpha-mediated induction of NF-κB activity in a 293 cells stably modified with a NF-κB luciferase reporter.
The activation of NF-κB was then quantitated by measuring the level of luciferase activity. […] Also, protein extracts were prepared from the same cells and the level of phospho-IkB determined, a marker of IKK activity.
To test if the small molecules identified by the in silico screen inhibit NF-κB activation, a HEK293 cell line stably expressing a luciferase reporter driven by a synthetic, NF-κB-dependent promoter was utilized. To induce NF-κB activation, cells were treated with 10 ng/ml of TNF-α and harvested three hours post-treatment for analysis of luciferase activity. […] To determine if compound 12909780 inhibited NF-κB in a dose dependent manner, concentrations were tested at 0, 6.25, 25, 50 and 100 μM.
HEK293 cells stably transfected with luciferase reporter plasmid driven by NF-κB were seeded in 96-well plate in triplicate and pretreated with DMSO or varying small molecules at indicated concentration for 30 min, followed by the stimulation of 10 ng/ml of TNFα for 3 hr. Cell were washed with PBS once and harvested in passive lysis buffer. Luciferase assay (Promega) was performed using a luminometer according to the manufacturer's instructions.

HEK293 cells = test: MTT cell viability assay; type: cell-based
Protocol: To identify NBD mimetics with higher biological activity than compound 12909780 or the NBD peptide, we next screened the ZINC 10.0 database (approximately 3.5 million compounds) in silico for structurally similar compounds (24).
Cell viability was calculated by normalizing values to untreated control.

NF-κB [5] = test: EMSA of NF-κB DNA binding in skeletal muscle of mdx mice after acute treatment; type: in vivo, mouse; details: single ip injection at 10 mg/kg, 1 and 2 hours post-treatment
Protocol: We also tested the compounds for their ability to inhibit NF-κB activity acutely in a murine model of disease. For these experiments, a mouse model of Duchenne muscular dystrophy, which has elevated NF-κB activity in muscle, was treated with Zinc-13 (NBDA-1) and Zinc-5 (NBDA-2) and the level of NF-κB activity determined by gel shift analysis at 1 and 2 hours post-treatment.
as §1, §2

T1 sequence (Q9Y6K9 whole entry, one chain of several): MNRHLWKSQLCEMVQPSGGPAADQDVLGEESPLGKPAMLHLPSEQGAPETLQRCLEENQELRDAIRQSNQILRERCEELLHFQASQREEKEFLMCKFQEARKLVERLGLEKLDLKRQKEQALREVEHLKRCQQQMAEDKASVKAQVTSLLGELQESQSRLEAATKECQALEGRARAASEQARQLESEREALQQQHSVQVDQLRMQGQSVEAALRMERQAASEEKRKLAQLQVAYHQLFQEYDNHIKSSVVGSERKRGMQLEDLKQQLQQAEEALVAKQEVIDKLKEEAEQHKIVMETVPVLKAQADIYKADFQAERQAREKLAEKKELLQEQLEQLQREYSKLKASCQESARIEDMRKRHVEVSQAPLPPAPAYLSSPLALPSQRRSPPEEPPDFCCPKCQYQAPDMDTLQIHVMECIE

## O=C(COC(=O)Cc1ccccc1F)Nc1ccc(Cl)cn1 [ZINC5, 2-(2-fluorophenyl)acetic-acid-[2-[(5-chloro-2-pyridyl)amino]-2-keto-ethyl]-ester]
NF-κB [1]
  TNFα-induced NF-κB DNA binding activity (EMSA): significantly decreased TNFα-induced NF-κB DNA binding activity
p-IκBα
  level of phospho-IκBα / phosphorylation of IkB: reduced the level of p-IκBα dramatically
[2]
  degradation in the presence of serum: rapid degradation in the presence of serum
[3]
  level of NEMO co-immunoprecipitated with IKKß: reduced the level of co-immunoprecipitated NEMO
Mdx mice
  therapeutic benefit of chronic treatment of mdx mice: showed no therapeutic benefit
NF-κB [4]; 0, 6.25, 25, 50 and 100 μM
  dose-dependent inhibition of TNF-α-induced NF-κB activation, in words: greater extent of inhibitory effect compared to compound 12909780
NF-κB [4]; listed as Zinc5
  inhibition of TNF-α-induced NF-κB activation (luciferase reporter), in words: lowered NF-κB activity robustly
NF-κB [4]; listed as Zinc-5
  inhibition of TNF-α-induced NF-κB activation (luciferase reporter), in words: able to inhibit TNF-alpha mediated activation of NF-κB, as or more efficiently as the NBD peptide
HEK293 cells; HEK293, 24 hours
  cell death / toxicity (MTT assay): less than 10%
HEK293 cells; at 50 and 100 μM
  cell toxicity, in words: no cell toxicity observed
NF-κB [5]; 10 mg/kg
  NF-κB DNA binding activity in quadriceps of mdx mice: inhibited NF-κB DNA binding activity in quadriceps
NF-κB [5]; listed as Zinc-5, 10 mg/kg
  NF-κB DNA binding activity in quadriceps of mdx mice: reduced NF-κB DNA binding activity in the skeletal muscle (quadricep)
